Measured values: patent publication US11970576B2, “Beta-peptido sugar-copolymer” (NANYANG TECHNOLOGICAL UNIVERSITY, priority 2017, dated 2024)
Converted amounts (≈) assume the structure as drawn. Where a SMILES comes first, the peptide text is derived from it.

Assays:
human red blood cells = experiment: Erythrocyte compatibility assay (hemolysis)
Method: Toxicity towards mammalian cells was another vital factor for bio-applications. […] Erythrocyte compatibility assay calculating the lysis of human red blood cells (HC10, concentration of polymers causing 10% human red blood cells lysed) was performed to characterize the in vitro biocompatibility.

S. aureus (ATCC 29213) = type: cell-based
Method: (§1) Antimicrobial activity of block-like copolymers PDGu(x)-b-PBLK(y) against a panel of bacteria including both Gram-positive (S. aureus and B. subtilis) and Gram-negative (E. coli) in terms of minimal inhibition concentration (MIC) were tested. […] The activity was decreased with the increase of sugar ratio. This is reasonable when considering the killing domains became less.

E. coli (ATCC 8739) = type: cell-based
Method: as §1

[1] = system: methicillin-resistant S. aureus (BAA-40); type: cell-based
Method: as §1

MRSA USA300 = experiment: In vivo murine excision wound model; set-up: species or system Staphylococcus aureus
Text: Staphylococcus aureus is the most common cause for skin and soft tissue infections (SSTIs). Among those, up to three quarter are caused by community-associated MRSA (CA-MRSA). MRSA USA300 is a significant CA-MRSA pathogen in the US. According to Centers for Disease Control and Prevention of US, 212 out of 218 MRSA isolates were type USA300. To further test the in vivo efficacy of PDGu(10)-b-PBLK(10) against the clinically significant pathogen MRSA USA300, a mice wound excision model was adopted using 8 weeks female C57BL6 mice. […] This could be attributed to the excellent antibacterial efficacy of the β-peptido sugar-copolymer in vivo.
The in vivo efficacy of PDGu(10)-b-PBLK(10) was further tested against MRSA USA 300 with a murine excision wound model using two infection durations with treatments applied either 4 hour or 24 hour post infection. For treatment applied 4 hour post infection, the β-peptido sugar-copolymer achieves a log reduction of 4.1 (FIG. 8a), which is slightly better than vancomycin, which has a log reduction of 3.7. […] In contrast, vancomycin treatment only achieves 2.0 log reduction of the bacteria burden at the wound site (p≤0.01). The excellent in vivo antibacterial efficacy of PDGu(10)-b-PBLK(10) may be correlated to its outstanding in vitro killing kinetics and anti-biofilm bacteria property.
Female C57BL6 mice (Invivos, Singapore) aged 8 weeks were used for excision wound model to evaluate in vivo antimicrobial efficacy of the β-peptido sugar-copolymer. All mice were housed on a 12 hour light-dark cycle at room temperature for one week prior to the experiment. Mice (n=7 per group) were anesthetized using isoflurane and hair from the back was removed with a shaver and sterile scalpel blade. The shaved area was further sterilized using 70% ethanol and a 5 mm diameter excision wound was created using a biopsy punch. In t=4 hour post infection model, 2.5 μL MRSA USA300 in PBS suspension (5×10^5 CFU/mL) was added to wound site and covered by Tegaderm (3M™) to protect from contamination. […]

| Molecule | HC10 RBC (concentration causing 10% human red blood cells lysed) (human red blood cells) [µg/mL] | MIC SA 29213 (S. aureus (ATCC 29213)) [µg/mL] | MIC E. coli (E. coli (ATCC 8739)) [µg/mL] | MIC MRSA [1] [µg/mL] | in vivo activity compared with the β-peptido sugar-copolymer (MRSA USA300; mice wound excision model, MRSA USA300) | log reduction of MRSA USA300 (MRSA USA300; treatment applied 4 hour post infection, single dose 2.5 mg/kg (FIG. 8a)) [log] | log reduction of total bacteria count (MRSA USA300; treatment initiated 24 hour post infection, three times with 4-hour interval, 2.5 mg/kg (FIG. 8b)) [log] |
| --- | --- | --- | --- | --- | --- | --- | --- |
| Polymyxin B | >2500 | 32 | 2 | 64 |  |  |  |
| CN[C@H](CC(C)C)C(=O)N[C@H]1C(=O)N[C@@H](CC(N)=O)C(=O)N[C@H]2C(=O)N[C@H]3C(=O)N[C@H](C(=O)N[C@H](C(=O)O)c4cc(O)cc(O)c4-c4cc3ccc4O)[C@H](O)c3ccc(c(Cl)c3)Oc3cc2cc(c3O[C@@H]2O[C@H](CO)[C@@H](O)[C@H](O)[C@H]2O[C@H]2C[C@](C)(N)[C@H](O)[C@H](C)O2)Oc2ccc(cc2Cl)[C@H]1O [vancomycin] |  |  |  |  | does not show superior activity | 3.7 | 2.0 |
| CC[C@H](C)[C@H](NC(=O)[C@H](CCCCN)NC(=O)[C@H](CCC(=O)O)NC(=O)[C@H](CCCCN)NC(=O)[C@H](CO)NC(=O)[C@H](CCCCN)NC(=O)[C@H](CCCNC(=N)N)NC(=O)[C@H](Cc1ccccc1)NC(=O)[C@H](Cc1ccccc1)NC(=O)[C@H](CC(=O)O)NC(=O)CNC(=O)[C@H](CC(C)C)NC(=O)[C@@H](N)CC(C)C)C(=O)NCC(=O)N[C@@H](CCCCN)C(=O)N[C@@H](CCC(=O)O)C(=O)N[C@@H](Cc1ccccc1)C(=O)N[C@@H](CCCCN)C(=O)N[C@@H](CCCNC(=N)N)C(=O)N[C@H](C(=O)N[C@H](C(=O)N[C@@H](CCC(N)=O)C(=O)N[C@@H](CCCNC(=N)N)C(=O)N[C@H](C(=O)N[C@@H](CCCCN)C(=O)N[C@@H](CC(=O)O)C(=O)N[C@@H](Cc1ccccc1)C(=O)N[C@@H](CC(C)C)C(=O)N[C@@H](CCCNC(=N)N)C(=O)N[C@@H](CC(N)=O)C(=O)N[C@@H](CC(C)C)C(=O)N[C@H](C(=O)N1CCC[C@H]1C(=O)N[C@@H](CCCNC(=N)N)C(=O)N[C@H](C(=O)N[C@@H](CCC(=O)O)C(=O)N[C@@H](CO)C(=O)O)[C@@H](C)O)C(C)C)[C@@H](C)CC)C(C)C)[C@@H](C)CC [LL37] |  |  |  | >512 |  |  |  |
| CC[C@H](C)[C@H](NC(=O)CN)C(=O)NCC(=O)N[C@@H](CCCCN)C(=O)N[C@@H](Cc1ccccc1)C(=O)N[C@@H](CC(C)C)C(=O)N[C@@H](Cc1c[nH]cn1)C(=O)N[C@@H](CO)C(=O)N[C@@H](C)C(=O)N[C@@H](CCCCN)C(=O)N[C@@H](CCCCN)C(=O)N[C@@H](Cc1ccccc1)C(=O)NCC(=O)N[C@@H](CCCCN)C(=O)N[C@@H](C)C(=O)N[C@@H](Cc1ccccc1)C(=O)N[C@H](C(=O)NCC(=O)N[C@@H](CCC(=O)O)C(=O)N[C@H](C(=O)N[C@@H](CCSC)C(=O)N[C@@H](CC(N)=O)C(=O)N[C@@H](CO)C(=O)O)[C@@H](C)CC)C(C)C [Magainin 2] (H-GIGKFLHSAKKFGKAFVGEIMNS-OH) | >500 | >512 | 64 (≈ 25.9 µM) | >512 |  |  |  |
| CC[C@H](C)[C@H](NC(=O)CN)C(=O)NCC(=O)N[C@@H](C)C(=O)N[C@H](C(=O)N[C@@H](CC(C)C)C(=O)N[C@@H](CCCCN)C(=O)N[C@H](C(=O)N[C@@H](CC(C)C)C(=O)N[C@H](C(=O)N[C@H](C(=O)NCC(=O)N[C@@H](CC(C)C)C(=O)N1CCC[C@H]1C(=O)N[C@@H](C)C(=O)N[C@@H](CC(C)C)C(=O)N[C@H](C(=O)N[C@@H](CO)C(=O)N[C@@H](Cc1c[nH]c2ccccc12)C(=O)N[C@H](C(=O)N[C@@H](CCCCN)C(=O)N[C@@H](CCCNC(=N)N)C(=O)N[C@@H](CCCCN)C(=O)N[C@@H](CCCNC(=N)N)C(=O)N[C@@H](CCC(N)=O)C(=O)N[C@@H](CCC(N)=O)C(N)=O)[C@@H](C)CC)[C@@H](C)CC)[C@@H](C)O)[C@@H](C)O)C(C)C)C(C)C [Melittin] | 8 |  |  |  |  |  |  |
